Tested on: 616215-338-R-J1-PDC spheroids with HUVEC/MSC, viability
Test: Anticancer human tumor 616215-338-R-J1-PDC patient-derived colon adenocarcinoma cell line growth inhibition [PI3K]
Details: for IC50: curve of first compound; for viability, T/C: stronger effect = lower value
Text: Combinatorial screen of targeted agents with the PI3K inhibitors inavolisib, alpelisib, duvelisib, and copanlisib in multi-cell type tumor spheroids
A high-throughput screen of multi-cell type tumor spheroids was designed to identify active combinations of targeted small molecules and PI3K pathway inhibitors. Complex spheroids include a stromal component modeled by human endothelial cells (HUVEC) and fibroblasts modeled by human mesenchymal stem cells (MSCs). The concentration ranges selected for each drug and investigational agent were based upon clinically achievable concentrations if the clinical Cmax of the agent was known.
Compounds. The drugs and investigational agents: inavolisib (NSC800729), alpelisib (NSC765974), duvelisib (NSC772469), copanlisib (NSC816437), ipatasertib (NSC767898), afuresertib (NSC778305), talazoparib (NSC767125), sapanisertib (NSC764658), selumetinib (NSC741078), tovorafenib (DAY101, NSC766906), vemurafenib (NSC761431), ravoxertinib (NSC781343), sotorasib (NSC818433), MRTX1133 (NSC 836407), abemaciclib (NSC 768073), palbociclib (NSC758247), venetoclax (NSC 766270), SY5609 (NSC837396), enzalutamide (NSC755605), and darolutamide (NSC825331), were obtained from the National Cancer Institute (NCI) Developmental Therapeutics Program Chemical Repository. The FDA-approved anticancer drug set is available from the NCI Developmental Therapeutics Program. […] The stock solutions were prepared in dimethyl sulfoxide (DMSO, Sigma-Aldrich, St. Louis, MO, cat. D2650) at 800-fold the tested concentration and stored at -70 degrees C prior to their use. All drugs and investigational agents were tested over a range starting from a high concentration at or near the clinical Cmax and decreasing in half-log increments. If the clinical Cmax for an agent had not been determined, the highest concentration tested was 10 microM.
Cell Culture. All cells were maintained in an incubator at 37 degrees C and 5% CO2 with 95% humidity. The PDC lines were cultured according to standard operating procedures established by the NCI PDMR (https://pdmr.cancer.gov/sops/default.htm). All PDCs were thawed and cultured in Matrigel-coated flasks prepared with a working solution of 1X Ham's F-12 nutrient mix, without supplementation (Invitrogen, Waltham, MA, cat. 11765054), 100 U/mL penicillin-streptomycin (Invitrogen, cat. 15140122), and 2.5% Matrigel (Corning Inc., Corning, NY, cat. 354248) for the first three passages. The 354836-022-R-J1-PDC, 475296-252-R-J1-PDC, and 997726-040-R-J2-PDC lines were cultured in 6A media, which includes advanced DMEM/F-12 (Thermo Fisher Scientific, cat. 12634028), 10 mM HEPES (Thermo Fisher Scientific, cat. 15630080), 1X GlutaMAX supplement (Thermo Fisher Scientific, cat. 35050061), 0.1 mg/mL primocin (InvivoGen, San Diego, CA, cat. ant-pm-2), 10% defined fetal bovine serum, heat inactivated (HyClone Laboratories Inc., Logan, UT, cat. SH30070.03HI), 50% L-WRN conditioned media (ATCC, cat. CRL-3276), 1.25 mM N-Acetyl-L-cysteine (Sigma-Aldrich, cat. A9165), 10 mM nicotinamide (Sigma-Aldrich, cat. N0636), 1X B-27 supplement (Thermo Fisher Scientific, cat. 17504044), 1X N-2 supplement (Thermo Fisher Scientific, cat. 17502048), and 10 microM Y-27632 dihydrochloride (Tocris Bioscience, Bristol, United Kingdom, cat. 1254). The 624824-186-R-J2-PDC line was cultured in 6C/Colon 1B media, which includes all 6A media components plus 50 ng/mL human EGF recombinant protein (Thermo Fisher Scientific, cat. PHG0311). […]

[1] = second compound 0.00316 µM, first compound 0.0316 µM
[2] = second compound 0.00316 µM, first compound 0.1 µM
[3] = second compound 0.00316 µM, first compound 0.316 µM
[4] = second compound 0.00316 µM, first compound 1 µM
[5] = second compound 0.00316 µM, first compound 3.16 µM
[6] = second compound 0.00316 µM, first compound 10 µM
[7] = second compound 0.01 µM, first compound 0.0316 µM
[8] = second compound 0.01 µM, first compound 0.1 µM
[9] = second compound 0.01 µM, first compound 0.316 µM
[10] = second compound 0.01 µM, first compound 1 µM
[11] = second compound 0.01 µM, first compound 3.16 µM
[12] = second compound 0.01 µM, first compound 10 µM
[13] = second compound 0.0316 µM, first compound 0.0316 µM
[14] = second compound 0.0316 µM, first compound 0.1 µM
[15] = second compound 0.0316 µM, first compound 0.316 µM
[16] = second compound 0.0316 µM, first compound 1 µM
[17] = second compound 0.0316 µM, first compound 3.16 µM
[18] = second compound 0.0316 µM, first compound 10 µM
[19] = second compound 0.1 µM, first compound 0.0316 µM
[20] = second compound 0.1 µM, first compound 0.1 µM
[21] = second compound 0.1 µM, first compound 0.316 µM
[22] = second compound 0.1 µM, first compound 1 µM
[23] = second compound 0.1 µM, first compound 3.16 µM
[24] = second compound 0.1 µM, first compound 10 µM
[25] = second compound 0.316 µM, first compound 0.0316 µM
[26] = second compound 0.316 µM, first compound 0.1 µM
[27] = second compound 0.316 µM, first compound 0.316 µM
[28] = second compound 0.316 µM, first compound 1 µM
[29] = second compound 0.316 µM, first compound 3.16 µM
[30] = second compound 0.316 µM, first compound 10 µM
[31] = second compound 1 µM, first compound 0.0316 µM
[32] = second compound 1 µM, first compound 0.1 µM
[33] = second compound 1 µM, first compound 0.316 µM
[34] = second compound 1 µM, first compound 1 µM
[35] = second compound 1 µM, first compound 3.16 µM
[36] = second compound 1 µM, first compound 10 µM
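Note: spheroids exposed to agents for seven days before the viability read.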

C=CC(=O)N1CCN(c2nc(=O)n(-c3c(C)ccnc3C(C)C)c3nc(-c4c(O)cccc4F)c(F)cc23)C(C)C1 (stereo unspecified) + CC(Nc1ccc2c(c1)OCCn1cc(N3C(=O)OCC3C(F)F)nc1-2)C(N)=O
IC50 (second compound 0.00316 µM): > 10 µM | IC50 (second compound 0.01 µM): > 10 µM | IC50 (second compound 0.0316 µM): > 10 µM | IC50 (second compound 0.1 µM): > 10 µM | IC50 (second compound 0.316 µM): > 10 µM | IC50 (second compound 1 µM): > 10 µM | viability, T/C [1]: 95.9% | viability, T/C [2]: 101% | viability, T/C [3]: 86.8% | viability, T/C [4]: 103% | viability, T/C [5]: 100% | viability, T/C [6]: 87.5% | viability, T/C [7]: 91.8% | viability, T/C [8]: 100% | viability, T/C [9]: 84.2% | viability, T/C [10]: 98.1% | viability, T/C [11]: 99.1% | viability, T/C [12]: 95.6% | viability, T/C [13]: 102% | viability, T/C [14]: 106% | viability, T/C [15]: 110% | viability, T/C [16]: 103% | viability, T/C [17]: 95.6% | viability, T/C [18]: 90.9% | viability, T/C [19]: 89.8% | viability, T/C [20]: 92.6% | viability, T/C [21]: 91.1% | viability, T/C [22]: 97.3% | viability, T/C [23]: 98% | viability, T/C [24]: 84.2% | viability, T/C [25]: 114% | viability, T/C [26]: 99.3% | viability, T/C [27]: 95.7% | viability, T/C [28]: 100% | viability, T/C [29]: 97.8% | viability, T/C [30]: 105% | viability, T/C [31]: 101% | viability, T/C [32]: 96.7% | viability, T/C [33]: 105% | viability, T/C [34]: 97.1% | viability, T/C [35]: 90.6% | viability, T/C [36]: 81.6%

CC(C)n1nc(-c2ccc3oc(N)nc3c2)c2c(N)ncnc21 + CC(Nc1ncnc2nc[nH]c12)c1cc2cccc(Cl)c2c(=O)n1-c1ccccc1
IC50 (second compound 0.0316 µM): > 0.1 µM | IC50 (second compound 0.1 µM): > 0.1 µM | IC50 (second compound 0.316 µM): > 0.1 µM | IC50 (second compound 1 µM): > 0.1 µM | IC50 (second compound 3.16 µM): > 0.1 µM | IC50 (second compound 10 µM): > 0.1 µM | viability, T/C (second compound 0.0316 µM, first compound 0.000316 µM): 102% | viability, T/C (second compound 0.0316 µM, first compound 0.001 µM): 103% | viability, T/C (second compound 0.0316 µM, first compound 0.00316 µM): 102% | viability, T/C (second compound 0.0316 µM, first compound 0.01 µM): 124% | viability, T/C [13]: 112% | viability, T/C [14]: 86.9% | viability, T/C (second compound 0.1 µM, first compound 0.000316 µM): 103% | viability, T/C (second compound 0.1 µM, first compound 0.001 µM): 121% | viability, T/C (second compound 0.1 µM, first compound 0.00316 µM): 99.8% | viability, T/C (second compound 0.1 µM, first compound 0.01 µM): 109% | viability, T/C [19]: 120% | viability, T/C [20]: 88.6% | viability, T/C (second compound 0.316 µM, first compound 0.000316 µM): 95.5% | viability, T/C (second compound 0.316 µM, first compound 0.001 µM): 92.8% | viability, T/C (second compound 0.316 µM, first compound 0.00316 µM): 118% | viability, T/C (second compound 0.316 µM, first compound 0.01 µM): 110% | viability, T/C [25]: 101% | viability, T/C [26]: 77.4% | viability, T/C (second compound 1 µM, first compound 0.000316 µM): 94.8% | viability, T/C (second compound 1 µM, first compound 0.001 µM): 106% | viability, T/C (second compound 1 µM, first compound 0.00316 µM): 99.2% | viability, T/C (second compound 1 µM, first compound 0.01 µM): 118% | viability, T/C [31]: 122% | viability, T/C [32]: 80.5% | viability, T/C (second compound 3.16 µM, first compound 0.000316 µM): 123% | viability, T/C (second compound 3.16 µM, first compound 0.001 µM): 103% | viability, T/C (second compound 3.16 µM, first compound 0.00316 µM): 111% | viability, T/C (second compound 3.16 µM, first compound 0.01 µM): 115% | viability, T/C (second compound 3.16 µM, first compound 0.0316 µM): 128% | viability, T/C (second compound 3.16 µM, first compound 0.1 µM): 68.5% | viability, T/C (second compound 10 µM, first compound 0.000316 µM): 110% | viability, T/C (second compound 10 µM, first compound 0.001 µM): 110% | viability, T/C (second compound 10 µM, first compound 0.00316 µM): 102% | viability, T/C (second compound 10 µM, first compound 0.01 µM): 113% | viability, T/C (second compound 10 µM, first compound 0.0316 µM): 112% | viability, T/C (second compound 10 µM, first compound 0.1 µM): 66.8%

CNC(=O)c1ccc(N2C(=S)N(c3ccc(C#N)c(C(F)(F)F)c3)C(=O)C2(C)C)cc1F + COc1c(OCCCN2CCOCC2)ccc2c3n(c(=NC(=O)c4cnc(N)nc4)nc12)CCN3
IC50 (second compound 0.00316 µM): > 10 µM | IC50 (second compound 0.01 µM): > 10 µM | IC50 (second compound 0.0316 µM): > 10 µM | IC50 (second compound 0.1 µM): > 10 µM | IC50 (second compound 0.316 µM): < 0.0316 µM | IC50 (second compound 1 µM): < 0.0316 µM | viability, T/C [1]: 92.8% | viability, T/C [2]: 92.1% | viability, T/C [3]: 95.9% | viability, T/C [4]: 92% | viability, T/C [5]: 99% | viability, T/C [6]: 93% | viability, T/C [7]: 98.7% | viability, T/C [8]: 108% | viability, T/C [9]: 103% | viability, T/C [10]: 93.3% | viability, T/C [11]: 111% | viability, T/C [12]: 87% | viability, T/C [13]: 103% | viability, T/C [14]: 98.1% | viability, T/C [15]: 99.8% | viability, T/C [16]: 105% | viability, T/C [17]: 96.5% | viability, T/C [18]: 89.1% | viability, T/C [19]: 97.4% | viability, T/C [20]: 89.6% | viability, T/C [21]: 91.5% | viability, T/C [22]: 107% | viability, T/C [23]: 84.6% | viability, T/C [24]: 67% | viability, T/C [25]: 50.8% | viability, T/C [26]: 45.3% | viability, T/C [27]: 38.1% | viability, T/C [28]: 43.1% | viability, T/C [29]: 41.1% | viability, T/C [30]: 29.2% | viability, T/C [31]: 21.8% | viability, T/C [32]: 22.5% | viability, T/C [33]: 22.8% | viability, T/C [34]: 22% | viability, T/C [35]: 25.6% | viability, T/C [36]: 14.4%
